Experiments:
[1] = molecular target: Prostaglandin F2-alpha receptor (Mus musculus, UniProt P43117)
Description: Agonist activity at FP receptor in mouse 3T3 fibroblast cells assessed as intracellular calcium mobilization by FLIPR

[2] = molecular target: Prostaglandin F2-alpha receptor (Mus musculus) (UniProt P43117); assay: Intrinsic activity at FP receptor in mouse 3T3 fibroblast cells assessed as maximum compound-evoked response; type: cell-based
in vitro [3] = conditions: human, Caco-2
Description: Permeability across human Caco2 cells

in vitro [4] = conditions: rabbit
Description: Corneal permeability in rabbit corneal tissues mounted on vertical Using chambers

Chain of Prostaglandin F2-alpha receptor (P43117 whole entry): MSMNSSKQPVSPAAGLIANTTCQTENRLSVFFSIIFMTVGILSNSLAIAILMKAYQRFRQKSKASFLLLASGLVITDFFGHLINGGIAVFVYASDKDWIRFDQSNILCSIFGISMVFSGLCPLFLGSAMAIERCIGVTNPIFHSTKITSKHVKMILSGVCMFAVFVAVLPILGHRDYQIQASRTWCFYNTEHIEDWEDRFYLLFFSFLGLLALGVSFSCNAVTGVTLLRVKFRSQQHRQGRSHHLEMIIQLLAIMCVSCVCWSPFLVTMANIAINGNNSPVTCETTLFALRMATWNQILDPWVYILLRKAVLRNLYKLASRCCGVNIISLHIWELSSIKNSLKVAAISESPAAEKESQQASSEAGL
Chain of Prostaglandin F2-alpha receptor (Mus musculus) (P43117 whole entry): as above

Row | EC50 [1] [µM] | Intrinsic activity [2] | Papp (in vitro [3]) [×10⁻⁶ cm/s] | Papp (in vitro [4]) [×10⁻⁶ cm/s] | Compound
1 | > 5.01 |  |  |  | CCCCC[C@H](O)/C=C/[C@@H]1[C@@H](C/C=C\CCCC(=O)NCCc2ccc(S(N)(=O)=O)cc2)[C@@H](O)C[C@H]1O
2 | > 5.01 |  |  |  | CC(C)OC(=O)CCC/C=C\C[C@@H]1[C@@H](/C=C/C(=O)Nc2nnc(S(N)(=O)=O)s2)[C@H](O)C[C@@H]1O
3 | 3.98 | 0.9 | 1.6 | 6.4 | CCCCC[C@H](O)/C=C/[C@@H]1[C@@H](C/C=C\CCCC(=O)Nc2nnc(S(N)(=O)=O)s2)[C@@H](O)C[C@H]1O
4 | 2 | > 1 | 3.3 | 1.7 | NS(=O)(=O)c1ccc(-n2cc([C@@H]3[C@@H](C/C=C\CCCC(=O)O)[C@@H](O)C[C@H]3O)nn2)cc1
5 | > 5.01 |  | 2.1 | 3.1 | CC(C)OC(=O)CCC/C=C\C[C@@H]1[C@@H](CNCC(=O)Nc2nnc(S(N)(=O)=O)s2)[C@H](O)C[C@@H]1O
6 | > 5.01 |  |  |  | CCCCC[C@H](O)/C=C/[C@@H]1[C@@H](C/C=C\CCCC(=O)N(CC)[C@H]2CN(CCCOC)S(=O)(=O)C3SC(S(N)(=O)=O)=CC32)[C@@H](O)C[C@H]1O (some centres undefined)
7 | > 5.01 |  | 3 | 0.94 | NS(=O)(=O)c1nnc(NC(=O)CNC[C@@H]2[C@@H](C/C=C\CCCC(=O)O)[C@@H](O)C[C@H]2O)s1
8 | 0.00631 | 1 | 3.5 | 1.2 | O=C(O)CCC/C=C\C[C@@H]1[C@@H](CC[C@@H](O)CCc2ccccc2)[C@H](O)C[C@@H]1O [LATANOPROST ACID]
9 | > 5.01 |  | 3.2 | 2.1 | COC(=O)CCC/C=C\C[C@@H]1[C@@H](c2cn(-c3ccc(S(N)(=O)=O)cc3)nn2)[C@H](O)C[C@@H]1O
10 |  | 1 | 3.3 | 9.7 | CCCCC[C@H](O)/C=C/[C@@H]1[C@@H](C/C=C\CCCC(=O)O)[C@@H](O)C[C@H]1O [DINOPROST]
11 | > 5.01 |  |  |  | CCN(C(=O)/C=C/[C@@H]1[C@@H](C/C=C\CCCC(=O)O)[C@@H](O)C[C@H]1O)[C@H]1C[C@H](C)S(=O)(=O)C2SC(S(N)(=O)=O)=CC21 (some centres undefined)
12 | > 5.01 |  |  |  | CCN(C(=O)/C=C/[C@@H]1[C@@H](C/C=C\CCCC(=O)OC(C)C)[C@@H](O)C[C@H]1O)[C@H]1C[C@H](C)S(=O)(=O)C2SC(S(N)(=O)=O)=CC21 (some centres undefined)

From ChEMBL document CHEMBL2321768, “A multivalent approach towards linked dual-pharmacology prostaglandin F receptor agonist/carbonic anhydrase-II inhibitors for the treatment of glaucoma” (Bioorg Med Chem Lett, 2013)
